Measurements from US10406127B2, “Solid oral formulation of fenretinide” (LAURENT PHARMACEUTICALS, priority 2014, dated 2019).
Like-named read-outs stand apart in the source and are kept apart here.

How the values were obtained:
[1] = Solubility in spray-drying solvents (visually assessed); format: physicochemical
Text: The solubility of Fenretinide/PVP K30 40/60% w/w mixtures was first visually assessed in various ratios of ethanol/dichloromethane. Thereafter, Spray Dryed Intermediates (SDIs) were produced from Fenretinide/PVP K30 40/60% w/w mixture solubilized at 7.5% w/v in ethanol/dichloromethane 90/10 v/v (L215-01009A), 50/50 v/v (L215-01009B) and 10/90 v/v (L215-01009C) systems for a total batch size of 15 g. The solvent was evaporated using Model GA32 Yamato® Lab Spray Dryer with the following operating parameters: 1.2 mm nozzle; about 9-15 g/min feed rate; 1.5 kg/cm^2 atomization air, and 0.35-0.55 m^3/min air flow. The inlet temperature was adjusted according to the solvent system to maintain an outlet temperature between 50-65° C.
Successive amounts of Fenretinide and PVP K30 40/60% w/w were added in 200 ml of dichloromethane until saturation of the solution. At a total solid loading of 20% w/v (40 g), the addition of Fenretinide and PVP K30 was stopped due to the increase of the solution viscosity. The solution was spray dried (lot L215-01010) with the following process parameters: 11-15 g/min feed rate; 75° C. inlet temperature; 45-48° C. outlet temperature; 0.1-0.3 MPa atomization air, and 0.40 m^3/min air flow.

[2] = fenretinide in rats; cited from earlier work

CC1=C(/C=C/C(C)=C/C=C/C(C)=C/C(=O)Nc2ccc(O)cc2)C(C)(C)CCC1 [Fenretinide, all-trans-N-(4-hydroxyphenyl) retinamide]
solubility ([1]; dichloromethane 100% with PVP K30, organic solvent or mixture, thermodynamic from solid, solubilised with PVP K30 in a ratio of 40/60 w/w, DCM 100%, read-out: solubility of Fenretinide): > 50 mg/mL
solubility ([1]; ethanol 100% with PVP K30, organic solvent or mixture, thermodynamic from solid, solubilised with PVP K30 in a ratio of 40/60 w/w, ethanol 100%, read-out: solubility of Fenretinide): ~34 mg/mL
solubility ([1]; ethanol/dichloromethane 50/50 v/v with PVP K30, organic solvent or mixture, thermodynamic from solid, solubilised with PVP K30 in a ratio of 40/60 w/w, ethanol/DCM 50/50 v/v, read-out: solubility of Fenretinide): > 50 mg/mL
solubility ([1]; mixture of methanol/dichloromethane (1:1)): very soluble
solubility ([1]; pure dichloromethane): very soluble
elimination half-life, literature data [2]: 7 to 10 h
